Measured values published in US10047083B2, “Dihydropyrimidinoisoquinolinones and pharmaceutical compositions thereof for the treatment of inflammatory disorders” (GALAPAGOS NV, priority 2011, dated 2018).

Key:
human neutrophils = test: Human neutrophil migration assay (embelin-induced); type: cell-based; conditions: neutrophils from human buffy coat, 30 min compound pre-incubation, migration towards embelin at EC80 for 1 h, ATPlite readout, read-out: human neutrophil migration inhibition (Neutrophils)
Method: 2. Cellular Assays 2.1. Human Neutrophil Migration Assay
The effect of agonists or antagonists for GPR84 can therefore be assayed in a neutrophil migration test. In the neutrophil migration assay, neutrophils, freshly isolated from buffy coats from human volunteers, are treated with a compound for 30 minutes. Subsequently, the neutrophils are transferred to the upper wells of a Corning HTS transwell 96 permeable support system, of which the lower wells are filled with a embelin solution at EC80 (concentration which gives 80% of the activity of GPR84). After 1 h of incubation, migration of the neutrophils towards embelin in the lower compartment can be quantified by measuring the ATP-content of the lower wells using the ATPlite luminescence ATP detection assay system (Perkin Elmer, Cat. No.: 436110).
A human buffy coat is diluted with an equal volume of ice cold DPBS. 20 mL of the diluted buffy coat is gently mixed with 4 mL of ACD buffer (140 mM citric acid, 200 mM sodium citrate and 220 mM dextrose). Then, 12 mL of the 6% dextran/0.9% NaCl solution (15 g dextran T2000 and 2.25 g NaCl dissolved in 250 mL H2O) is added to the mixture and the samples are inverted gently up to 20 times. The total volume was transferred to a new recipient and incubated at room temperature for 1 h for complete separation of the two phases to occur. The yellowish supernatant is then transferred to a clean centrifugation tube and centrifuged for 12 minutes at 1300 rpm and 4° C. After centrifugation, the supernatant is discarded and the remaining cell pellet is rapidly resuspended in 12 mL of ice-cold H2O for red blood cell lysis to occur. After 20 seconds, 4 mL of ice-cold 0.6 M KCl is added. Samples are mixed carefully and centrifuged for 6 minutes at 1300 rpm, 4° C. The supernatant is discarded and the red blood cell lysis procedure is repeated one more time. Subsequently, the cell pellet is resuspended in 4 mL of DPBS and layered over 5 mL of Lymphoprep (Nycomed Pharma, Cat. No.: 1114545) in a 15 mL centrifuge tube. After centrifugation for 12 min at 1300 rpm, 4° C., the supernatant is removed and the cell pellet, containing the neutrophils, is resuspended in 25 mL chemotaxis buffer (RPMI 1640 medium, supplemented with 10 mM HEPES; freshly made for each experiment)
A cell suspension of 8.9×10^6 cells per milliliter is prepared. 20 μL of compound solution in chemotaxis buffer is added to 180 μL cell suspension. The mixture is incubated at 37° C. for 30 minutes with intermediate resuspension of the cells after 15 minutes. Following this, 70 μL cell suspension is transferred to the upper compartment of a Corning HTS transwell 96 permeable support system with 5.0 μm pore size polycarbonate membrane (Corning, Cat. No.: 3387). The receiver well of the transwell system is then filled with 200 μL chemotaxis buffer containing compound and chemotactic agent (embelin). After incubation at 37° C. in 5% CO2 for 1 h, the upper plate of the transwell system is removed and the cell suspension in the receiver plate is transferred to a 96-well V-bottom plate. 50 μL of DPBS is added to the receiver plate to prevent remaining cells from drying out. The V-bottom plate is centrifuged for 6 minutes at 1500 rpm. The supernatant is removed and the cells are resuspended in 50 μL DPBS. The cells are then transferred back to the receiver plate of the transwell system. After this, 100 μL ATPlite solution (Perkin Elmer, Cat. No: 436110) was added to the cells. The plate is incubated for 10 minutes in the dark, while shaking. […] of cell lysate is then transferred to a white 96-well plate and luminescence is measured. The detected luminescent signal is considered as linearely related to the number of cells having migrated from the upper well to the receiver well.

GPR84 = molecular target: T1, GPR84 (Homo sapiens, UniProt Q9NQS5); test: GTPγS binding assay (GPR84); type: biochemical; conditions: membranes from stable cell line over expressing GPR84; 3,3′ di indolylmethane at EC80
T1 construct: expressed in transfected cells; membranes used
T1 sequence (Q9NQS5 whole entry): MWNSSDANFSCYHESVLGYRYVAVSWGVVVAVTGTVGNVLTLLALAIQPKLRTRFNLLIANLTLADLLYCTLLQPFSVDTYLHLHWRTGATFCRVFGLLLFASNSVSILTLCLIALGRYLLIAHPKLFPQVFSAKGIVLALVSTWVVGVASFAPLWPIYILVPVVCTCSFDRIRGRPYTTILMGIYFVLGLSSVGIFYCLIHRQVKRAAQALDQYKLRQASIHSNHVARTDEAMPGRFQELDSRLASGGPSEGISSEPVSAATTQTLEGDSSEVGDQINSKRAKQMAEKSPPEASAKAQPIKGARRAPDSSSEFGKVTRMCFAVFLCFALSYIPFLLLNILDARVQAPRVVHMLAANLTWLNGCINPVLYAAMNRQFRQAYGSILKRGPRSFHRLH
How it was run: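 Membranes (20 μg/well) from a stable GPR84-overexpressing line, pre-incubated with 0.1 μM GDP for 15 min at 4° C, mixed with 0.1 nM [35S]GTPγS and WGA SpA beads in 20 mM HEPES pH 7.4, 5 mM MgCl2, 250 mM NaCl, 0.05% BSA, 75 ug/mL saponin; 90 min at room temperature, then scintillation counting.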

| SMILES | IC50 (human neutrophils) | IC50 (GPR84) |
| --- | --- | --- |
| O=c1nc(OC[C@@H]2COCCO2)cc2n1CCc1cc(OCC3CCCCO3)ccc1-2 (stereo partly drawn) [Compound 139, 2-((S)-1-[1,4]dioxan-2-ylmethoxy)-9-(tetrahydro-pyran-2-ylmethoxy)-6,7-dihydro-pyrimido[6,1-a]isoquinolin-4-one] | 0.01 to 100 nM | 0.01 to 100 nM |
| O=c1nc(OCC2COCCO2)cc2n1CCc1cc(CCCNc3ccccc3)ccc1-2 (stereo in doubt) [Compound 149, 2-((S)-1-[1,4]dioxan-2-ylmethoxy)-9-(3-phenylamino-propyl)-6,7-dihydro-pyrimido[6,1-a]isoquinolin-4-one] | 0.01 to 100 nM | 0.01 to 100 nM |
| N#CCOc1ccc2c(c1)CCn1c-2cc(OCC2COCCO2)nc1=O (centres unmarked) [Compound 7, [2-([1,4]dioxan-2-ylmethoxy)-4-oxo-6,7-dihydro-4H-pyrimido[6,1-a]isoquinolin-9-yloxy]-acetonitrile] | 101 to 500 nM | 101 to 500 nM |
| O=c1nc(OCC2COCCO2)cc2n1CCc1cc(OCc3ccccn3)ccc1-2 (centres unmarked) [Compound 9, 2-([1,4]dioxan-2-ylmethoxy)-9-(pyridin-2-ylmethoxy)-6,7-dihydro-pyrimido[6,1-a]isoquinolin-4-one] | 0.01 to 100 nM | 0.01 to 100 nM |
| CCC(O)C#Cc1ccc2c(c1)CCn1c-2cc(OCC2COCCO2)nc1=O (centres unmarked) [Compound 89, 2-([1,4]dioxan-2-ylmethoxy)-9-(3-hydroxy-pent-1-ynyl)-6,7-dihydro-pyrimido[6,1-a]isoquinolin-4-one] | 0.01 to 100 nM | 101 to 500 nM |
| O=c1nc(OC[C@@H]2COCCO2)cc2n1CCc1cc(COCC3CCOCC3)ccc1-2 [Compound 161, 2-((S)-1-[1,4]dioxan-2-ylmethoxy)-9-(tetrahydro-pyran-4-ylmethoxymethyl)-6,7-dihydro-pyrimido[6,1-a]isoquinolin-4-one] | 0.01 to 100 nM | 101 to 500 nM |
| O=c1nc(OC[C@@H]2COCCO2)cc2n1CCc1cc(COCC3CCCC3)ccc1-2 [Compound 147, 9-cyclopentylmethoxymethyl-2-((S)-1-[1,4]dioxan-2-ylmethoxy)-6,7-dihydro-pyrimido[6,1-a]isoquinolin-4-one] | 0.01 to 100 nM | 0.01 to 100 nM |
| O=c1nc(OC[C@@H]2COCCO2)cc2n1CCc1cc(OCC3CCOCC3)ccc1-2 [Compound 159, 2-((S)-1-[1,4]dioxan-2-ylmethoxy)-9-(tetrahydro-pyran-4-ylmethoxy)-6,7-dihydro-pyrimido[6,1-a]isoquinolin-4-one] | 0.01 to 100 nM | 0.01 to 100 nM |
| COc1cccc(-c2ccc3c(c2)CCn2c-3cc(OCC3COCCO3)nc2=O)c1OC (centres unmarked) [Compound 63, 9-(2,3-dimethoxy-phenyl)-2-([1,4]dioxan-2-ylmethoxy)-6,7-dihydro-pyrimido[6,1-a]isoquinolin-4-one] | 0.01 to 100 nM | 101 to 500 nM |
| CC(C)(O)CCCc1ccc2c(c1)CCn1c-2cc(OC[C@@H]2COCCO2)nc1=O [Compound 160, 2-((S)-1-[1,4]dioxan-2-ylmethoxy)-9-(4-hydroxy-4-methyl-pentyl)-6,7-dihydro-pyrimido[6,1-a]isoquinolin-4-one] | 101 to 500 nM | 101 to 500 nM |
| CCCC(O)C#Cc1ccc2c(c1)CCn1c-2cc(OCC2COCCO2)nc1=O (centres unmarked) [Compound 98, 2-([1,4]dioxan-2-ylmethoxy)-9-(3-hydroxy-hex-1-ynyl)-6,7-dihydro-pyrimido[6,1-a]isoquinolin-4-one] | 0.01 to 100 nM | 0.01 to 100 nM |
| CC(C)(C)COc1ccc2c(c1)CCn1c-2cc(OC[C@@H]2COCCO2)nc1=O [Compound 158, 9-(2,2-dimethyl-propoxy)-2-((S)-1-[1,4]dioxan-2-ylmethoxy)-6,7-dihydro-pyrimido[6,1-a]isoquinolin-4-one] | 0.01 to 100 nM | 101 to 500 nM |
| CC(O)CCc1ccc2c(c1)CCn1c-2cc(OC[C@@H]2COCCO2)nc1=O (stereo partly drawn) [Compound 140, 2-((S)-1-[1,4]dioxan-2-ylmethoxy)-9-(3-hydroxy-butyl)-6,7-dihydro-pyrimido[6,1-a]isoquinolin-4-one] | 0.01 to 100 nM | 101 to 500 nM |
| O=c1nc(OCC2COCCO2)cc2n1CCc1cc(C#CCNc3ccccc3)ccc1-2 (centres unmarked) [Compound 107, 2-([1,4]dioxan-2-ylmethoxy)-9-(3-phenylamino-prop-1-ynyl)-6,7-dihydro-pyrimido[6,1-a]isoquinolin-4-one] | 0.01 to 100 nM | 0.01 to 100 nM |
| O=c1nc(OCC2COCCO2)cc2n1CCc1cc(OCc3ncco3)ccc1-2 (centres unmarked) [Compound 8, 2-([1,4]dioxan-2-ylmethoxy)-9-(oxazol-2-ylmethoxy)-6,7-dihydro-pyrimido[6,1-a]isoquinolin-4-one] | 101 to 500 nM | 101 to 500 nM |
| O=c1nc(OC[C@H]2COCCO2)cc2n1CCc1cc(CCC3CC3)ccc1-2 [Compound 114, 9-(2-cyclopropyl-ethyl)-2-((R)-1-[1,4]dioxan-2-ylmethoxy)-6,7-dihydro-pyrimido[6,1-a]isoquinolin-4-one] | 0.01 to 100 nM | 0.01 to 100 nM |
| COCCCCc1ccc2c(c1)CCn1c-2cc(OC[C@@H]2COCCO2)nc1=O [Compound 174, 2-((S)-1-[1,4]Dioxan-2-ylmethoxy)-9-(4-methoxy-butyl)-6,7-dihydro-pyrimido[6,1-a]isoquinolin-4-one] | 0.01 to 100 nM | 0.01 to 100 nM |
| O=c1nc(OCC2COCCO2)cc2n1CCc1cc(CCc3ccccn3)ccc1-2 (centres unmarked) [Compound 20, 2-([1,4]dioxan-2-ylmethoxy)-9-(2-pyridin-2-yl-ethyl)-6,7-dihydro-pyrimido[6,1-a]isoquinolin-4-one] | 0.01 to 100 nM | – |
| N#Cc1ccccc1-c1ccc2c(c1)CCn1c-2cc(OCC2COCCO2)nc1=O (centres unmarked) [Compound 4, 2-[2-([1,4]dioxan-2-ylmethoxy)-4-oxo-6,7-dihydro-4H-pyrimido[6,1-a]isoquinolin-9-yl]-benzonitrile] | 101 to 500 nM | – |
| Cc1ccc(-c2ccc3c(c2)CCn2c-3cc(OCC3COCCO3)nc2=O)cn1 (centres unmarked) [Compound 35, 2-([1,4]dioxan-2-ylmethoxy)-9-(6-methyl-pyridin-3-yl)-6,7-dihydro-pyrimido[6,1-a]isoquinolin-4-one] | 101 to 500 nM | – |
| CN(CC#Cc1ccc2c(c1)CCn1c-2cc(OCC2COCCO2)nc1=O)Cc1ccccc1 (centres unmarked) [Compound 85, 9-[3-(benzyl-methyl-amino)-prop-1-ynyl]-2-([1,4]dioxan-2-ylmethoxy)-6,7-dihydro-pyrimido[6,1-a]isoquinolin-4-one] | 0.01 to 100 nM | – |
| O=c1nc(OC[C@H]2COCCO2)cc2n1CCc1cc(C#CC3CC3)ccc1-2 [Compound 111, 9-cyclopropylethynyl-2-((R)-1-[1,4]dioxan-2-ylmethoxy)-6,7-dihydro-pyrimido[6,1-a]isoquinolin-4-one] | 0.01 to 100 nM | – |
| O=c1nc(OC[C@@H]2COCCO2)cc2n1CCc1cc(C#CC3CC3)ccc1-2 [Compound 122, 9-cyclopropylethynyl-2-((S)-1-[1,4]dioxan-2-ylmethoxy)-6,7-dihydro-pyrimido[6,1-a]isoquinolin-4-one] | 0.01 to 100 nM | – |
| CCCC#Cc1ccc2c(c1)CCn1c-2cc(OCC2COCCO2)nc1=O (centres unmarked) [Compound 19, 2-([1,4]dioxan-2-ylmethoxy)-9-pent-1-ynyl-6,7-dihydro-pyrimido[6,1-a]isoquinolin-4-one] | 0.01 to 100 nM | – |
